Data set [1] in a line: Cmax in C57BL6/N mouse at 50 mg/kg, po measured upto 24 hrs by LC-MS/MS analysis. The format is ADME, organism-based. Also noted: dose 50 mg/kg, time < 24 hrs, route po. The note with it: in vivo.
A short description of data set [2]: Microsomal stability in mouse liver microsomes assessed as compound remaining after 60 mins by LC-MS/MS analysis. The format is ADME, Microsome. The note with it: for remaining at 1 h: liver microsomes, read-out: Stability; for Stability: microsomes, 1 h.
Data set [3] can be described thus: Mutagenicity in Salmonella typhimurium by Ames test. The format is toxicity. The note with it: salmonella enterica subsp. enterica serovar typhimurium.
Data set [4] is described as follows: Half life in C57BL6/N mouse at 10 mg/kg, po measured upto 24 hrs by LC-MS/MS analysis. Format: ADME, organism-based. The note with it: in vivo.
Data set [5] has as its target T1, Nicotinamide N-methyltransferase (Homo sapiens, UniProt P40261).
T1 sequence (P40261 whole entry): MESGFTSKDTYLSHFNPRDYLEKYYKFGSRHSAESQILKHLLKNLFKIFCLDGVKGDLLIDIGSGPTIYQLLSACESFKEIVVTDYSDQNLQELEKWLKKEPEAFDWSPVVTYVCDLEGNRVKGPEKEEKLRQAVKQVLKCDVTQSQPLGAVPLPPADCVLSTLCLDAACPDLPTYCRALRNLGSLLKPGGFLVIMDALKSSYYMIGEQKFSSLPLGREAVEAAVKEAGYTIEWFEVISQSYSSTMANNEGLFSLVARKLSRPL
Kind of data set: Inhibition of human NNMT in human K562 cells measured after 24 hrs by quantitative mass spectrometry. Format: cell-based.

Data set [6] addresses T1, Nicotinamide N-methyltransferase.
Description: Inhibition of human NNMT measured after 20 mins by luminescence based methyltransferase assay
Data set [7] can be described thus: Microsomal stability in human liver microsomes assessed as compound remaining after 60 mins by LC-MS/MS analysis. The note with it: for remaining at 1 h: liver microsomes, read-out: Stability. The format is ADME, Microsome. In general terms: Microsomes from liver hold many membrane-bound enzymes, among them those of drug oxidation.
Data set [8] can be described thus: AUClast in C57BL6/N mouse at 50 mg/kg, po measured upto 24 hrs by LC-MS/MS analysis. To be noted: in vivo; for AUC(0-t) at 24 h: C57BL6/N. Format: ADME, organism-based. On the set-up: time < 24 hrs, dose 50 mg/kg, route po.
The target of a further data set is P-gp (Homo sapiens, UniProt P08183). The data set is described as follows: Substrate activity at P-gp (unknown origin) assessed as efflux ratio. To be noted: not told.
A short description of data set [9]: Volume of distribution at steady state in C57BL6/N mouse. To be noted: in vivo, read-out: Vdss. The format is ADME.
Data set [10] in a line: Plasma protein binding in human. The format is ADME, cell-free. To be noted: read-out: PPB.
Data set [11] is described as follows: Toxicity in C57BL6/N mouse assessed as adverse effect at 50 to 100 mg/kg, po qd measured after 2 weeks. The format is organism-based. The note with it: in vivo, 336 h, dose 50-100 mg/kg.
The nature of data set [12]: Plasma protein binding in mouse. Format: ADME, cell-free. The note with it: read-out: PPB.
A further data set addresses hERG (Homo sapiens, UniProt Q12809). The data set is described as follows: Inhibition of hERG. The format is toxicity. A general note: Block of hERG is tested as a sign of cardiac risk.
The next data set addresses CYP450 (Homo sapiens, UniProt P04798+P05177+P05181+P08684+P10632+P10635+P11509+P11712+P13584+P20813+P20815+P20853+P24462+P24903+P33260+P33261+P51589+P78329+P98187+Q02928+Q08477+Q16678+Q16696+Q5TCH4+Q6VVX0+Q7Z449+Q8TAV3+Q96SQ9+Q9HB55). Kind of data set: Inhibition of CYP450 (unknown origin). The format is ADME, protein assay.
Data set [13] can be described thus: Aqueous solubility of compound at pH 7.4. Format: physicochemical. To be noted: aqueous medium.
Data set [14] can be described thus: Tmax in C57BL6/N mouse at 50 mg/kg, po measured upto 24 hrs by LC-MS/MS analysis. The format is ADME, organism-based. To be noted: in vivo.
Data set [15] in a line: Half life in C57BL6/N mouse at 50 mg/kg, po measured upto 24 hrs by LC-MS/MS analysis. Format: ADME, organism-based. To be noted: in vivo.
The nature of data set [16]: Dissociation constant, pKa of the compound. Format: physicochemical.
Data set [17] is described as follows: Clearance in C57BL6/N mouse at 1 mg/kg, iv measured upto 24 hrs by LC-MS/MS analysis. The format is ADME, organism-based. To be noted: in vivo.
A short description of data set [18]: Oral bioavailability in C57BL6/N mouse at 50 mg/kg measured upto 24 hrs by LC-MS/MS analysis. The format is ADME, organism-based. The note with it: in vivo; for bioavailability: C57BL6/N.
Substrate in data set [19]: C[C@@H]1Cc2cc(C(N)=O)cnc2N1
Description: Uncompetitive inhibition of human NNMT assessed as Km of nicotinamide
To be noted: Homo sapiens.

Substrate in data set [20]: C[C@@H]1Cc2cc(C(N)=O)cnc2N1
Description: Uncompetitive inhibition of human NNMT assessed as Km of SAM
To be noted: Homo sapiens. The source holds these as a separate data set.

Sequence of hERG (Q12809 whole entry): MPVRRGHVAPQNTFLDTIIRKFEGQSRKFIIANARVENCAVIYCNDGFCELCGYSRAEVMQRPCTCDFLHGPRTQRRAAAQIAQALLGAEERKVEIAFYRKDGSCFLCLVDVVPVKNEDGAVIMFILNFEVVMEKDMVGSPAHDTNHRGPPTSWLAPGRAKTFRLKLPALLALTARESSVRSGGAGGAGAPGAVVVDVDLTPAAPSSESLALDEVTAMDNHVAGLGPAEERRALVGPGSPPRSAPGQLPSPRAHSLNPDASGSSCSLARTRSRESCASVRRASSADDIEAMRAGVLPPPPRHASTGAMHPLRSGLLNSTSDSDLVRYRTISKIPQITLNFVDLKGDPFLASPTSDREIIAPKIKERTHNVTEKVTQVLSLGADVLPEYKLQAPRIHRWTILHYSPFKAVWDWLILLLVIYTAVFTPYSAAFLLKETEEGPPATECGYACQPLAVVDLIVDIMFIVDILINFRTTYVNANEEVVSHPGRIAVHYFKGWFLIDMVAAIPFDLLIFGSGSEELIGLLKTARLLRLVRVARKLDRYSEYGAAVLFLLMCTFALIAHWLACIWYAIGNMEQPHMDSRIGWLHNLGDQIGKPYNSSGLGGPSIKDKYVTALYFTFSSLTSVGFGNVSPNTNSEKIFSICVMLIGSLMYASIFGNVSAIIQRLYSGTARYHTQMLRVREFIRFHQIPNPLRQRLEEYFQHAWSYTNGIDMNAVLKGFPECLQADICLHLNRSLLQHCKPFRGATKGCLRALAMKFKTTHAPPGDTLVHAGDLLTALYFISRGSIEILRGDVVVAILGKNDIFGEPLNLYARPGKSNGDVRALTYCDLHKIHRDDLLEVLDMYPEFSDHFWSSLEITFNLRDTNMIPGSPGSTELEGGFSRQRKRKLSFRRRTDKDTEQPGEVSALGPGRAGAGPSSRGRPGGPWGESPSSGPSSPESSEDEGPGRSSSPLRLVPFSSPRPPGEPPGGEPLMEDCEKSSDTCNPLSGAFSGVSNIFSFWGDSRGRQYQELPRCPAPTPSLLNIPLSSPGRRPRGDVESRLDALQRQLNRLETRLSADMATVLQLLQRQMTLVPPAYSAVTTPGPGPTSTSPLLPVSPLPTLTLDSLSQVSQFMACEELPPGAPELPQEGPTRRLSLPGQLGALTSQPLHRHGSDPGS
Sequence of P-gp (P08183 whole entry): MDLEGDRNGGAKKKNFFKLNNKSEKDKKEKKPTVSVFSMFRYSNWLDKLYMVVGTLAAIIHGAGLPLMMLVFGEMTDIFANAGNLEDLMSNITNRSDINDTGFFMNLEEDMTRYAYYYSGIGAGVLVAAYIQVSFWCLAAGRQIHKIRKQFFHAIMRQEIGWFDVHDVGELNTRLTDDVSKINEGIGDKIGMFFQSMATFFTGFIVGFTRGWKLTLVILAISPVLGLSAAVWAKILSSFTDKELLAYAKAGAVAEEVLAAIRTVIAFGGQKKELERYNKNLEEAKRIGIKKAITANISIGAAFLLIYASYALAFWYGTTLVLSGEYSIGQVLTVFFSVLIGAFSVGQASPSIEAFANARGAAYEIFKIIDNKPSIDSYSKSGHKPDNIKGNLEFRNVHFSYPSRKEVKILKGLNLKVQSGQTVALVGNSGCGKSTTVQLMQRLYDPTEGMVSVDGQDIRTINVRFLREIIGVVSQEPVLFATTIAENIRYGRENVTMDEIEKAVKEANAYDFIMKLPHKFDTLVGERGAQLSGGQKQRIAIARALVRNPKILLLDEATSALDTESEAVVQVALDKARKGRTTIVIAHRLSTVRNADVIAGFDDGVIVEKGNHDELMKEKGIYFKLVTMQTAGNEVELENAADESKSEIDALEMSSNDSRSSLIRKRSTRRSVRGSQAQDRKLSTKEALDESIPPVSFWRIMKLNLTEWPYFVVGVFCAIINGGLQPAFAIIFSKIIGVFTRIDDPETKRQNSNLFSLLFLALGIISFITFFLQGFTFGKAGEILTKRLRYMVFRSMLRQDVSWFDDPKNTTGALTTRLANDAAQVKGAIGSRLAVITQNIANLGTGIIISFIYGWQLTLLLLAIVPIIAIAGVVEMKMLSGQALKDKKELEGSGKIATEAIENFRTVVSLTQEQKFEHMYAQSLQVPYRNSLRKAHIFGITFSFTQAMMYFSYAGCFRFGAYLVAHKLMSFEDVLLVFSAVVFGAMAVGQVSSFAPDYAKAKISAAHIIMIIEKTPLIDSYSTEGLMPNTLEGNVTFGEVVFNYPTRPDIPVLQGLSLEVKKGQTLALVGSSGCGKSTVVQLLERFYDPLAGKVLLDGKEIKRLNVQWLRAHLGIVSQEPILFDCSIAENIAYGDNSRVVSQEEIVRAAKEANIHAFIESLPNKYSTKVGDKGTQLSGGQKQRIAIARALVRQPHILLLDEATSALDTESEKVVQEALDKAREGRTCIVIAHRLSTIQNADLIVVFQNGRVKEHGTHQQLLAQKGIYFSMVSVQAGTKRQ

`C[C@@H]1Cc2cc(C(N)=O)cnc2N1` showed a Cmax in [1] of 22.5 µg/mL. Further, the remaining at 1 h amounted to 93% in [2] and 97% in [7]. Moreover, the Activity result in data set [3] and in data set [11] was “Non-Toxic” each time. Further, the half-life is 78.5 min in [4] and 173 min in data set [15]. Besides, the IC50 is 0.038 µM in data set [5], 0.042 µM in data set [6], over 30 µM on hERG and over 100 µM on CYP450. The same molecule registered an AUClast in [8] (24 h) of 5.115 µg·h/mL. Further, at P-gp, the efflux ratio worked out at 0.79. Further, the Vd in [9] was found to be 0.877 L/kg. Also, the fraction unbound in [10] is over 0.62; in data set [12], over 0.76. Also, the solubility in [13] is at least 0.05 mg/mL. Also, the Tmax in data set [14] was 15 min.

`CCOc1cc(C)c(C(N)=O)cn1` came in with an IC50 in [6] of over 10 µM.

In [6], `COc1ccc(C(N)=O)cn1` came in with an IC50 of 1.39 µM.

For `C[C@@H]1Cc2cc(C(N)=O)c[n+](C)c2N1`, the IC50 in [6] is 6.24 µM.

As for `Cc1c(C(N)=O)c[n+]([O-])c2c1CCN2`, the IC50 in data set [6] was determined as 7.05 µM.

In the case of `COc1ccccn1`, the pKa in data set [16] is 3.28.

Regarding `NC(=O)c1cnc2[nH]ccc2c1Cl`, the IC50 in [6] was over 10 µM.

For the molecule `CNc1cc(OC)c(C(N)=O)cn1`, the IC50 in data set [6] is over 10 µM.

In data set [6], `C[C@@H]1Nc2ncc(C(N)=O)cc2[C@H]1C` registered an IC50 of over 10 µM.

As for `C[C@@H]1Cc2c(ncc(C(N)=O)c2Cl)N1`, the IC50 in [6] came to 0.048 µM.

`CNc1cc(C(F)(F)F)c(C(N)=O)cn1` displayed an IC50 in data set [6] of over 10 µM.

As to `CNc1ccncc1C(N)=O`, the IC50 in [6] was over 10 µM.

The molecule `CNc1ncc(C(N)=O)cn1` showed an IC50 in data set [6] of over 10 µM.

With `CNc1cc(C)c(C(N)=O)cn1`, the highest level in [1] (Cmax) was 38.9 µg/mL. Also, the remaining at 1 h amounted to 85% in data set [2] and 95% in data set [7]. The same molecule had a clearance in data set [17] of 3.77 L/h/kg. In addition, the half-life was 66.6 min in [4] and 107 min in data set [15]. In addition, the IC50 is 0.025 µM in data set [5] and 0.282 µM in data set [6]. The molecule also registered an AUC(0-t) at 24 h in [8] of 30.7 µg·h/mL.

`CNc1ncc(C(N)=O)c(C)c1C` gave an IC50 in [6] of over 10 µM.

`NC(=O)c1cnc2c(c1)CCCN2` displayed an IC50 in data set [6] of 0.74 µM.

Consider `CNc1ncc(C(N)=O)s1`, for which the IC50 in data set [6] was over 10 µM.

`NC(=O)c1cnc2c(c1)OCCN2` showed an IC50 in data set [6] of over 10 µM.

In data set [6], `NC(=O)c1cnc2[nH]ncc2c1` displayed an IC50 of over 10 µM.

`CNc1cc(Cl)c(C(N)=O)cn1` displayed an IC50 in [6] of 0.639 µM.

Turning to `Cc1c(C(N)=O)cnc2c1C[C@@H](C)N2`, the Cmax in [1] is 11.2 µg/mL. In addition, in data set [2], the Stability entry is listed as “Unstable”. The same molecule came in with a clearance in data set [17] of 5.4 L/h/kg. Moreover, the IC50 in [5] was determined as 0.012 µM; in data set [6], 0.043 µM. For the same molecule, the remaining at 1 h in data set [7] came to 91%. The AUC(0-t) at 24 h in [8] was determined as 12.1 µg·h/mL. Further, the bioavailability in [18] amounted to 129%. Further, the Tmax in [14] stood at 20 min.

`CNc1cc(C)c(C(N)=S)cn1` displayed an IC50 in [6] of over 10 µM.

In turn, `C[C@H]1Cc2cc(C(N)=O)cnc2N1` yielded an IC50 in data set [6] of over 10 µM.

As for `CNc1ncc(C(N)=O)c(C)n1`, the IC50 in data set [6] is over 10 µM.

Take `NC(=O)c1cnc2c(c1Cl)CCN2`: the highest level in [1] (Cmax) was 5.58 µg/mL. In addition, the values for the remaining at 1 h in data set [2] and in data set [7] were 40% and 57%, respectively. The molecule also gave a clearance in data set [17] of 10.7 L/h/kg. The figures for the half-life in data set [4] and in data set [15] were 27 min and 172 min, respectively. For the same molecule, the IC50 in [5] amounted to 0.079 µM; in data set [6] it was 0.092 µM. Moreover, the AUC(0-t) at 24 h in [8] is 4.33 µg·h/mL. The bioavailability in data set [18] was 90%. Moreover, the Tmax in [14] is 15 min.

In the case of `NC(=O)c1ccc(N)nc1` [6-AMINONICOTINAMIDE], in data set [6], the IC50 amounted to 3.62 µM. This counts as single-digit micromolar.

For `C[C@H]1Nc2ncc(C(N)=O)cc2[C@@H]1C`, the Stability entry is “Unstable” in data set [2] and “Unstable” in data set [7] (microsomes, 1 h). For the same molecule, half-maximal inhibition in data set [5] (IC50) required 0.114 µM.

Regarding `Cc1c(C(N)=O)cnc2c1CCN2`, in data set [1], the Cmax was determined as 13.5 µg/mL. Besides, the results for the remaining at 1 h in [2] and in data set [7] were 47% and 85%, respectively. In addition, the clearance in [17] is 10.9 L/h/kg. Also, the half-life in data set [4] was 22.2 min; in [15], 32.6 min. For the same molecule, the IC50 in data set [5] came out at 0.023 µM; in [6], 0.102 µM. The molecule further yielded an AUC(0-t) at 24 h in [8] of 9.22 µg·h/mL. This molecule also had a F in data set [18] (po, 50 mg/kg, 24 h) of 191%. Besides, the Tmax in data set [14] is 15 min.

For the molecule `NC(=O)c1cnc2c(c1)CCN2`, the Cmax in [1] amounted to 28.7 µg/mL. In addition, the remaining at 1 h in [2] was 89%; in data set [7] it was 100%. Moreover, the clearance in [17] turned out to be 3.85 L/h/kg. Further, the values for the half-life in data set [4] and in [15] were 23.4 min and 87.6 min, respectively. For the same molecule, the IC50 in data set [5] came out at 0.142 µM; in [6], 0.175 µM. This molecule showed an AUC(0-t) at 24 h in data set [8] of 29 µg·h/mL. For the same molecule, the Tmax in data set [14] worked out at 15 min.

B1: Nicotinamide N-methyltransferase (Homo sapiens), P40261 (protein)
chain: T1 sequence (P40261 whole entry)
For the molecule B1, the Km in [19] is 13.9 µM; in [20], 20.2 µM.

In general, Cmax refers to the peak of the concentration-time curve. For orientation: half-life means how long it takes for the measured level to halve. By IC50 is commonly meant the concentration that gives 50% inhibition. Lower therefore signals inhibition by little substance. The term efflux ratio denotes the permeability from basolateral to apical divided by that in the opposite direction, in the common usage. The solubility is the dissolved amount per volume that the medium holds. A word on the Tmax: it is the time from dosing to the highest level. One may read the pKa as the pH at which an ionisable group is half protonated. Higher therefore signals a group that holds its proton tightly. In general, clearance refers to a measure of how efficiently the substance is removed, as volume per time. A lower clearance goes with inefficient removal. One may read the AUC(0-t) as the area under the concentration-time curve up to a stated or last time point. A low value points to low exposure. For orientation: Km means the substrate concentration at which the rate is half of its maximum.

The record behind these values is ChEMBL document CHEMBL5214992, “Potent Uncompetitive Inhibitors of Nicotinamide N-Methyltransferase (NNMT) as In Vivo Chemical Probes” (J Med Chem, 2022).
